Reference: patent US7700284B2, “Reporter transcription unit populations and kits comprising same” (Attagene, Inc., priority 2004, dated 2010)

Tests used:
[1] = system: Elk-1 TAD RTU (ERK1/2 pathway); test: MAPK pathway TAD RTU profiling in HEK293 cells, Elk-1 TAD RTU; format: cell-based, human; conditions: HEK293, PMA 10 uM, 6 hours induction, versus control cells
ATF2 TAD RTU = test: MAPK pathway TAD RTU profiling in HEK293 cells, ATF2 TAD RTU; format: cell-based, human; conditions: HEK293, PMA 10 uM, 6 hours induction
c-Jun TAD RTU = test: MAPK pathway TAD RTU profiling in HEK293 cells, c-Jun TAD RTU; format: cell-based, human; conditions: HEK293, PMA 10 uM, 6 hours induction
metal-sensitive MTΔ RTU = test: Multiplexed RTU reporter profiling in transfected HEK293 cells, MTΔ RTU; conditions: HEK293, 100 μM, 6 hrs stimulation, 11-RTU library
NF-κB RTU = test: Multiplexed RTU reporter profiling in transfected HEK293 cells, NF-κB RTU; conditions: HEK293, 100 u per ml, 6 hrs stimulation, 11-RTU library
[2] = biological target: GR RTU (Gal4DBD-GR fusion) (Homo sapiens, UniProt P04150); conditions: HEK293, 10 uM, 6 hrs induction, versus non-induced cells
Sequence of GR RTU (Gal4DBD-GR fusion) (P04150 486-777): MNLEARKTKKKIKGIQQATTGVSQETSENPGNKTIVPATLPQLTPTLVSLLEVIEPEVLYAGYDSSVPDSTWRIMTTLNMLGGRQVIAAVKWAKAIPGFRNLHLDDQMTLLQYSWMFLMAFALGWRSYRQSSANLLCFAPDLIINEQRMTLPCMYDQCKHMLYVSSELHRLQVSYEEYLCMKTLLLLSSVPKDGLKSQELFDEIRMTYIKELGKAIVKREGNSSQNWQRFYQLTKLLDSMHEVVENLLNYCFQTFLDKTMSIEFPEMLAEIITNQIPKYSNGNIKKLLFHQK

**Q.** Which “activation of the Elk-1 TAD RTU” value [1] does the source give for `CCCCCCCCCCCCCC(=O)O[C@@H]1[C@@H](C)[C@@]2(O)[C@@H](C=C(CO)C[C@@]3(O)C(=O)C(C)=C[C@@H]23)[C@@H]2C(C)(C)[C@]12OC(C)=O` [PMA, 4α-Phorbol 12-myristate 13-acetate] here?
**A.** Its value is ~20 fold.

**Q.** And the “activity of ATF2 TAD RTU” value (ATF2 TAD RTU)?
**A.** The value was “remained unchanged”.

**Q.** And the “activity of c-Jun TAD RTU” value (c-Jun TAD RTU)?
**A.** Its value is “remained unchanged”.

**Q.** With `[Cl-].[Cl-].[Zn+2]` [ZnCl2] as the compound, how does the “induction of MTΔ RTU (stimulated versus nonstimulated cells)” value (metal-sensitive MTΔ RTU) read?
**A.** The value was “induced”.

**Q.** “IL-1β: Human recombinant IL-1β purchased from Roche; NF-κB inducer” was tested. Which “activation of NF-κB RTU (stimulated versus nonstimulated cells)” value (NF-κB RTU) did it give?
**A.** Its value is “specifically activated”.

**Q.** dexamethasone [Dexamethazone] was tested. Which “increase of reporter peak produced by GR RTU” value [2] did it give?
**A.** The value was 10 fold.
